Data set [1] relates to central effects of 5-hydroxytryptophan. Description: Potentiation of the central effects of 5-hydroxytryptophan (5-HTP). The format is in vivo. The settings on record: Mus musculus, ip; Swiss mice, I.P., 30 minutes before 300 mg/kg 5-HTP I.P.; observed 30 min later for 1 min; read-out: Potentiation of the 5-HTP ED50 DE50. As for the experimental part: This potentiation objectifying the axonal blocking of the reabsorption of the seratonin at the serotoninergic nerve ends was studied by the method described by T. M. Pugsley and […] The mice are observed 30 min later, for 1 min, during which the following sterotyped movements are classified: extension of the hind paws, trembling, excitement, head shaking.

The nature of data set [2]: Acute oral toxicity, lethal doses 50 (LD50). The settings on record: mouse, in vivo.

Molecules are shown by their SMILES. Where a name gives a salt, the structure may show the parent alone.

What is called ED50 is the dose that gives a 50% effect, or the effect in half of the subjects. On to `O=c1c2ccccc2nnn1CCCN1CCN(c2ccccc2Cl)CC1` [Example 6, [[(Chloro-2 phenyl-4 piperazinyl-1]-3 propyl]3-3H-benzotriazine-1,2,3 one 4, hydrochloride], for which, in data set [1], the ED50 was 12 mg/kg.
As to `O=c1c2cc(Cl)ccc2nnn1CCCN1CCN(c2ccccc2)CC1` [Example 28, Chloro-6[(phenyl-4 piperazinyl-1)-3 propyl]-3-3H-benzotriazine-1,2,3 one-4 dihyrochloride], in data set [1], the ED50 came to 5 mg/kg.
As usually defined, the LD50 is the dose at which mortality reaches 50%. Read a high LD50 as lower toxicity. Consider `Cc1ccc2nnn(CCCN3CCN(c4cccc(Cl)c4)CC3)c(=O)c2c1` [Example 20, [[(Chloro-3 phenyl)-1 piperazinyl-1]-3 propyl]-3 methyl-6-3H-benzotriazine-1,2,3 one-4, hydrochloride], for which the ED50 in data set [1] worked out at 8 mg/kg. In data set [2], this compound had a 50% lethal dose (LD50) of over 3200 mg/kg.
As for `O=c1c2ccc(Cl)cc2nnn1CCCN1CCN(c2cccc(Cl)c2)CC1` [Example 19, Chloro-7 [[(chloro-3 phenyl)-4 piperazinyl-1]-3 propyl]-3-3H-benzotriazine-1,2,3 one-4 hydrochloride], the ED50 in data set [1] was 10 mg/kg.
`O=c1c2ccsc2nnn1CCCN1CCN(c2cccc(Cl)c2)CC1` [Example 23, [[(Chloro-3 phenyl)-4-piperazinyl-1]3 propyl]-3-3H-thieno[2,3-d]triazine-1,2,3 one-4 hydrochloride]: the ED50 in data set [1] amounted to 3 mg/kg. This compound displayed an LD50 in data set [2] of 1060 mg/kg.
For `O=c1c2ccccc2nnn1CCCN1CCN(c2cccc(Cl)c2)CC1` [Example 1, [[(chloro-3 phenyl)-4 piperazinyl-1]-3 propyl]-3-3H-benzotriazine-1,2,3 one-4, hydrochloride], the ED50 in data set [1] was found to be 3 mg/kg. In data set [2], this compound yielded an LD50 of over 3200 mg/kg.
As to `COc1cccc(N2CCN(CCCn3nnc4ccccc4c3=O)CC2)c1` [Example 15, [[(Methoxy-3 phenyl)-4 piperazinyl-1]-3 propyl]-3-3H-benzotriazine-1,2,3 one-4], in data set [1], the ED50 stood at 9 mg/kg.
On the same count and under the same terms, the same measure for `COc1ccc(N2CCN(CCCn3nnc4ccccc4c3=O)CC2)cc1OC` [Example 29, [[(Dimethoxy-3,4 phenyl)-4 piperazinyl-1]-3 propyl]-3-3H-benzotriazine-1,2,3 one-4 dihydrochloride]: 12 mg/kg; for `O=c1c2ccccc2nnn1CCCN1CCN(c2ccc(F)c(Cl)c2)CC1` [Example 27, [[(Chloro-3 fluoro-4 phenyl)-4 piperazinyl-1]-3 propyl]-3-3H-benzotriazine-1,2,3 one-4 hydrochloride]: 8 mg/kg; for `COc1ccc(N2CCN(CCCn3nnc4ccccc4c3=O)CC2)cc1` [Example 16, [[(Methoxy-4 phenyl)-4 piperazinyl-1]-3propyl]-3-3H-benzotriazine-1,2,3 one-4]: 11 mg/kg.
As for `O=c1c2ccccc2nnn1CCCN1CCN(c2cccc(F)c2)CC1` [Example 10, [[(Fluoro-3phenyl)-4 piperazinyl-1]-3 propyl]-3H-benzotriazine-1,2,3 one-4, hydrochloride], the ED50 in data set [1] was 14 mg/kg. In data set [2], this compound returned an LD50 of 1500 mg/kg.
Turning to `Cl.O=c1n(CCCN2CCN(c3cccc(Cl)c3)CC2)nc2ccccn12` [Trazodone Hydrochloride, 2-[3-[4-(3-chlorophenyl)-1-piperazinyl]propyl]-1,2,4-triazolo[4,3-a]pyridin-3 (2H)-one hydrochloride, reference compound], in data set [2], the LD50 was 650 mg/kg.
As for `O=c1c2ccccc2nnn1CCCN1CCN(c2ccccc2)CC1` [Example 11, [(Phenyl-4 piperazinyl-1)-3 propyl]-3-3H-benzotriazine-1,2,3 one-4 hydrochloride], in data set [1], the ED50 was found to be 8 mg/kg. This compound also yielded an LD50 in data set [2] of 1000 mg/kg.
For the compound `Cc1ccccc1N1CCN(CCCn2nnc3ccccc3c2=O)CC1` [Example 9, [[(Methyl-2 phenyl)-4 piperazinyl-1]-3 propyl]-3-3H-benzotriazine-1,2,3 one-4 hydrochloride], the 50% effective dose (ED50) in data set [1] was 5 mg/kg.
